This note sets out measurements from patent US6770456B1, “Endogenous retrovirus tumor associated nucleic acids and antigens” (Ludwig Institute for Cancer Research, priority 1998, dated 2004).

The experiment has as its system AVL3-EBV B cells. As to the kind of experiment: Peptide sensitization of EBV-transformed B cells to lysis by CTL 13 (51Cr release). The experiment is classed as cell-based, human. The settings on record: 51Cr-labeled cells incubated 30 min at 20° C. with peptide; effector:target 5:1; chromium release after 4 hr; read-out: half-maximal effect for sensitizing AVL3-EBV B cells to lysis by CTL clone 13. How it is done: Sensitivity of target cells to lysis by the CTL was evaluated by a standard ^51Cr-release assay over 4 hr. Some lysis assays were performed in the presence of the following murine monoclonal antibodies: BB7.2, an IgG2b anti-HLA-A2 (from the ATCC), and OKM1, an IgG2b anti-CD11b (from the ATCC).
One of them, MLAVISCAV (SEQ ID NO:9), was contained within an open reading frame starting with an initiation codon preceeded by a canonical Kozak consensus sequence. This peptide sensitized AVL3-EBV B cells to lysis by CTL clone 13, with an half-maximal effect at 5 nM (FIG. 4). ^51Cr-labeled EBV-transformed B cells from patient AVL3 were incubated for 30 min at 20° C. with the indicated concentrations of peptide. CTL 13 were then added at an effector:target ratio of 5:1, and chromium release was measured after 4 hr.

As for MLAVISCAV, the EC50 stood at 5 nM.
